Assays:
[1] = biological target: T1, Muscarinic acetylcholine receptor M1 (Rattus norvegicus, UniProt P08482)
T1 sequence (P08482 whole entry): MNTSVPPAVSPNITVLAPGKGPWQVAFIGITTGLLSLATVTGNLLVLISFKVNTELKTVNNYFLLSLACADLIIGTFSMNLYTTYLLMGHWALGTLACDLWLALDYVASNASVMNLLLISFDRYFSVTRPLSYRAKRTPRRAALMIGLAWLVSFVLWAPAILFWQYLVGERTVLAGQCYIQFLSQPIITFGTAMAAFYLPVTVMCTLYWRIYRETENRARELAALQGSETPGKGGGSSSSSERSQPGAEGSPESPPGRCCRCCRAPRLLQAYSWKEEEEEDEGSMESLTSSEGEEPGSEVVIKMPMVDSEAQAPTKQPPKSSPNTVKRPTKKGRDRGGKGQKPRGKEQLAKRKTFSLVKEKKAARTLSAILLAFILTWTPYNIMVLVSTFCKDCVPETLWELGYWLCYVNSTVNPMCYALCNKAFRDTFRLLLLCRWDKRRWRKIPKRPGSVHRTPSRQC

[2] = biological target: Muscarinic acetylcholine receptor M3 (Rattus norvegicus, UniProt P08483)
[3] = biological target: T2, Muscarinic acetylcholine receptor M4 (Homo sapiens, UniProt P08173)
T2 sequence (P08173 whole entry): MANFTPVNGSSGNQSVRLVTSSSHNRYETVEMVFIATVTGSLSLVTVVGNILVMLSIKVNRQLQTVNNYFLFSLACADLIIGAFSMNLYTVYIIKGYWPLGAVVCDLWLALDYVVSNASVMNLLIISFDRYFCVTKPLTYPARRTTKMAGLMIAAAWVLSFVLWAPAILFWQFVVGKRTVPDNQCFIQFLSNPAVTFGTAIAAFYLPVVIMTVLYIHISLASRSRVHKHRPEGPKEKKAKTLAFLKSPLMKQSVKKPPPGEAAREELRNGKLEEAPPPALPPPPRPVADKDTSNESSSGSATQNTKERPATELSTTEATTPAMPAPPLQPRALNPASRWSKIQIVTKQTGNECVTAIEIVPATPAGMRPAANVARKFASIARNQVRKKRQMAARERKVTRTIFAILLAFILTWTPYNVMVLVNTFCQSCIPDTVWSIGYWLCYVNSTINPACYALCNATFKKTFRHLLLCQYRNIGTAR

[4] = biological target: T3, Muscarinic acetylcholine receptor M5 (Homo sapiens, UniProt P08912)
T3 sequence (P08912 whole entry): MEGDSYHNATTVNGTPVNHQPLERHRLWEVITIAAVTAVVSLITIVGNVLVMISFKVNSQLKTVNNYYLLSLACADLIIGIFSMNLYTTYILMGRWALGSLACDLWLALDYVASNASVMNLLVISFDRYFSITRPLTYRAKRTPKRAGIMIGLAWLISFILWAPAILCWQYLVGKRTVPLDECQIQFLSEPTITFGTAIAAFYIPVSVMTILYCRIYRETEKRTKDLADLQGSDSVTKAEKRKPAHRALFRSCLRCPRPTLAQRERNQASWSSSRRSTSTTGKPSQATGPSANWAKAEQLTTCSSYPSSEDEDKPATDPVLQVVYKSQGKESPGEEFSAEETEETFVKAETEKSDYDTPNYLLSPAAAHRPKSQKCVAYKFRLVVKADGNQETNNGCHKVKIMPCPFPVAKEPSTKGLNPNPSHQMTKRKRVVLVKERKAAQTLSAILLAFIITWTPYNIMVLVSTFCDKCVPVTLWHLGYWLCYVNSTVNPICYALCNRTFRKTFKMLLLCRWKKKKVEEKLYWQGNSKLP

Measured: Ki

Sequence of Muscarinic acetylcholine receptor M3 (P08483 whole entry): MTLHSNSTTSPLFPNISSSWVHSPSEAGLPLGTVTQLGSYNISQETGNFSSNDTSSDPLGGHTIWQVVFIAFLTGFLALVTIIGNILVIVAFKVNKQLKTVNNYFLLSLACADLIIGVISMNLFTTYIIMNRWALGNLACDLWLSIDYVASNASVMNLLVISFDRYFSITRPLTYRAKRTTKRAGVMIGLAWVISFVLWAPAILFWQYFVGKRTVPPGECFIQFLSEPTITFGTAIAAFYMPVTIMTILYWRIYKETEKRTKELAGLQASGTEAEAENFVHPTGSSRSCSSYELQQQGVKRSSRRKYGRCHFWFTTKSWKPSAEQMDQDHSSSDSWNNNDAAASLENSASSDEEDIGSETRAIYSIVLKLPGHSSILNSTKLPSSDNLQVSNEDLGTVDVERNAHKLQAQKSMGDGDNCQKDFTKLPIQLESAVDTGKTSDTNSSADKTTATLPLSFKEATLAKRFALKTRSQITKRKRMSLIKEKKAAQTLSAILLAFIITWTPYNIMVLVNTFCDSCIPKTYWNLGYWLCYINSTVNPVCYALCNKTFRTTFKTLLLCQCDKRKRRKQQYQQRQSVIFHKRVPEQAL

CC(CCC(=O)NCC(=O)O)C1CCC2C3CCC4CC(O)CCC4(C)C3CCC12C (stereo unspecified) [CAS_115245]
> 10 µM: all assays above

CC(CCC(=O)NCCS(=O)(=O)O)C1CCC2C3CCC4CC(O)CCC4(C)C3CCC12C (stereo unspecified) [NSC_10595]
> 10 µM: [1] | [2]
